Data published in patent US10537558B2 (Bantam Pharmaceutical, LLC, priority 2015, dated 2020).

Test system: BJAB cells
Assay: BJAB cell proliferation (Cell Titer Glo)
Assay type: cell-based
Conditions: Homo sapiens, read-out: EC50
Method in brief: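 EC50 values come from non-linear regression of luminescence (Cell Titer Glo), expressed relative to untreated wells. BJAB cells were incubated roughly 72 h at 37 °C with serial compound dilutions carrying 0.1% final DMSO.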

Cc1cc(-c2c(C)nn(-c3nc(-c4cc(Cl)ccc4Cl)c(SC(C)C)s3)c2C(=O)O)cc(C)n1 [Compound 161, 1-(4-(2,5-dichlorophenyl)-5-(isopropylthio)thiazol-2-yl)-4-(2,6-dimethylpyridin-4-yl)-3-methyl-1H-pyrazole-5-carboxylic acid]
EC50: 5 to 10 µM

Cc1cc(-c2c(C)nn(-c3nc(C#Cc4ccccc4)c(SC(C)C)s3)c2C(=O)O)cc(C)n1 [Compound 162, 4-(2,6-dimethylpyridin-4-yl)-1-(5-(isopropylthio)-4-(phenylethynyl)thiazol-2-yl)-3-methyl-1H-pyrazole-5-carboxylic acid]
EC50: 5 to 10 µM

Cc1cc(-c2c(C)nn(-c3nc(Cc4ccccc4)c(SC(C)C)s3)c2C(=O)O)cc(C)n1 [Compound 163, 1-(4-benzyl-5-(isopropylthio)thiazol-2-yl)-4-(2,6-dimethylpyridin-4-yl)-3-methyl-1H-pyrazole-5-carboxylic acid]
EC50: 10 to 25 µM

COc1cc(F)cc(-c2c(C)nn(-c3nc(-c4ccc(Cl)c(Cl)c4)c(SC(C)C)s3)c2C(=O)O)c1 [Compound 164, 1-(4-(3,4-dichlorophenyl)-5-(isopropylthio)thiazol-2-yl)-4-(3-fluoro-5-methoxyphenyl)-3-methyl-1H-pyrazole-5-carboxylic Acid]
EC50: 1 to 5 µM

COc1cc(C)cc(-c2c(C)nn(-c3nc(-c4ccc(Cl)c(Cl)c4)c(SC(C)C)s3)c2C(=O)O)c1 [Compound 165, 1-(4-(3,4-dichlorophenyl)-5-(isopropylthio)thiazol-2-yl)-4-(3-methoxy-5-methylphenyl)-3-methyl-1H-pyrazole-5-carboxylic Acid]
EC50: 1 to 5 µM

COc1cc(-c2c(C)nn(-c3nc(-c4ccc(Cl)c(Cl)c4)c(SC(C)C)s3)c2C(=O)O)ccn1 [Compound 166, 1-(4-(3,4-dichlorophenyl)-5-(isopropylthio)thiazol-2-yl)-4-(2-methoxypyridin-4-yl)-3-methyl-1H-pyrazole-5-carboxylic acid]
EC50: 5 to 10 µM

Cc1cc(-c2c(C)nn(-c3nc(-c4ccc(Cl)c(Cl)c4)c(SC(C)C)s3)c2C(=O)O)ccn1 [Compound 167, 1-(4-(3,4-dichlorophenyl)-5-(isopropylthio)thiazol-2-yl)-3-methyl-4-(2-methylpyridin-4-yl)-1H-pyrazole-5-carboxylic Acid]
EC50: 1 to 5 µM

Cc1nn(-c2nc(-c3cccc4[nH]ccc34)c(SC(C)C)s2)c(C(=O)O)c1-c1cccc(F)c1 [Compound 168, 1-(4-(1H-indol-4-yl)-5-(isopropylthio)thiazol-2-yl)-4-(3-fluorophenyl)-3-methyl-1H-pyrazole-5-carboxylic acid]
EC50: > 25 µM

Cc1nn(-c2nc(-c3cccc(F)c3)c(SC(C)C)s2)c(C(=O)O)c1-c1cccc2[nH]ccc12 [Compound 169, 1-(4-(3-fluorophenyl)-5-(isopropylthio)thiazol-2-yl)-4-(1H-indol-4-yl)-3-methyl-1H-pyrazole-5-carboxylic acid]
EC50: > 25 µM

Cc1nn(-c2nc(-c3ccc4[nH]ccc4c3)c(SC(C)C)s2)c(C(=O)O)c1-c1cccc(F)c1 [Compound 170, 1-(4-(1H-indol-5-yl)-5-(isopropylthio)thiazol-2-yl)-4-(3-fluorophenyl)-3-methyl-1H-pyrazole-5-carboxylic acid]
EC50: > 25 µM

Cc1nn(-c2nc(C#CC3CC3)c(SC(C)C)s2)c(C(=O)O)c1-c1cccc(F)c1 [Compound 171, 1-(4-(cyclopropylethynyl)-5-(isopropylthio)thiazol-2-yl)-4-(3-fluorophenyl)-3-methyl-1H-pyrazole-5-carboxylic acid]
EC50: > 25 µM

Cc1nn(-c2nc(C3CC3)c(SC(C)C)s2)c(C(=O)O)c1C1CC1 [Compound 172, 4-cyclopropyl-1-(4-cyclopropyl-5-(isopropylthio)thiazol-2-yl)-3-methyl-1H-pyrazole-5-carboxylic Acid]
EC50: > 25 µM

Cc1nn(-c2nc(-c3ccc(Cl)c(Cl)c3)c(SC(C)C)s2)c(C(=O)O)c1C1CC1 [Compound 173, 4-cyclopropyl-1-(4-(3,4-dichlorophenyl)-5-(isopropylthio)thiazol-2-yl)-3-methyl-1H-pyrazole-5-carboxylic Acid]
EC50: 10 to 25 µM

Cc1nn(-c2nc(-c3ccc(Cl)c(Cl)c3)c(SC(C)C)s2)c(C(=O)O)c1-c1cc(Cl)cc(OC(C)C)c1 [Compound 174, 4-(3-chloro-5-isopropoxyphenyl)-1-(4-(3,4-dichlorophenyl)-5-(isopropylthio)thiazol-2-yl)-3-methyl-1H-pyrazole-5-carboxylic Acid]
EC50: 1 to 5 µM

Cc1nn(-c2nc(-c3cccc(Cl)c3)c(SC(C)C)s2)c(C(=O)O)c1-c1cccc(F)c1 [Compound 176, 1-(4-(3-chlorophenyl)-5-(isopropylthio)thiazol-2-yl)-4-(3-fluorophenyl)-3-methyl-1H-pyrazole-5-carboxylic Acid]
EC50: 5 to 10 µM

Cc1nn(-c2nc(-c3ccc(Cl)cc3)c(SC(C)C)s2)c(C(=O)O)c1-c1cccc(F)c1 [Compound 177, 1-(4-(4-chlorophenyl)-5-(isopropylthio)thiazol-2-yl)-4-(3-fluorophenyl)-3-methyl-1H-pyrazole-5-carboxylic Acid]
EC50: < 1 µM

Cc1nn(-c2nc(-c3ccc(Cl)cc3Cl)c(SC(C)C)s2)c(C(=O)O)c1-c1cccc(F)c1 [Compound 178, 1-(4-(2,4-dichlorophenyl)-5-(isopropylthio)thiazol-2-yl)-4-(3-fluorophenyl)-3-methyl-1H-pyrazole-5-carboxylic Acid]
EC50: 1 to 5 µM

Cc1nn(-c2nc(-c3ccc(-c4cccc(F)c4)nc3)c(SC(C)C)s2)c(C(=O)O)c1Br [Compound 179, 4-bromo-1-(4-(6-(3-fluorophenyl)pyridin-3-yl)-5-(isopropylthio)thiazol-2-yl)-3-methyl-1H-pyrazole-5-carboxylic Acid]
EC50: 25 to 50 µM

Cc1cc(-c2c(C)nn(-c3nc(-c4ccc(Cl)c(Cl)c4)c(SC(C)C)s3)c2C(=O)O)cc(O[C@@H]2CCOC2)n1 [Compound 180, (R)-1-(4-(3,4-dichlorophenyl)-5-(isopropylthio)thiazol-2-yl)-3-methyl-4-(2-methyl-6-((tetrahydrofuran-3-yl)oxy)pyridin-4-yl)-1H-pyrazole-5-carboxylic Acid]
EC50: 10 to 25 µM

COCCOc1cc(-c2c(C)nn(-c3nc(-c4ccc(Cl)c(Cl)c4)c(SC(C)C)s3)c2C(=O)O)cc(C)n1 [Compound 181, 1-(4-(3,4-dichlorophenyl)-5-(isopropylthio)thiazol-2-yl)-4-(2-(2-methoxyethoxy)-6-methylpyridin-4-yl)-3-methyl-1H-pyrazole-5-carboxylic Acid]
EC50: 10 to 25 µM

Cc1cc(-c2c(C)nn(-c3nc(-c4ccc(Cl)c(Cl)c4)c(SC(C)C)s3)c2C(=O)O)cc(O[C@H]2CCOC2)n1 [Compound 182, (S)-1-(4-(3,4-dichlorophenyl)-5-(isopropylthio)thiazol-2-yl)-3-methyl-4-(2-methyl-6-((tetrahydrofuran-3-yl)oxy)pyridin-4-yl)-1H-pyrazole-5-carboxylic acid]
EC50: 10 to 25 µM

Cc1nn(-c2nc(C3=CCCCC3)c(SC(C)C)s2)c(C(=O)O)c1-c1cccc(F)c1 [Compound 183, 1-(4-(cyclohex-1-en-1-yl)-5-(isopropylthio)thiazol-2-yl)-4-(3-fluorophenyl)-3-methyl-1H-pyrazole-5-carboxylic Acid]
EC50: 5 to 10 µM

Cc1nn(-c2nc(C3=CCCC3)c(SC(C)C)s2)c(C(=O)O)c1-c1cccc(F)c1 [Compound 184, 1-(4-(cyclopent-1-en-1-yl)-5-(isopropylthio)thiazol-2-yl)-4-(3-fluorophenyl)-3-methyl-1H-pyrazole-5-carboxylic acid]
EC50: 10 to 25 µM

COc1cc(Cl)cc(-c2c(C)nn(-c3nc(-c4ccccc4)c(SC(C)C)s3)c2C(=O)O)c1 [Compound 185, 4-(3-chloro-5-methoxyphenyl)-1-(5-(isopropylthio)-4-phenylthiazol-2-yl)-3-methyl-1H-pyrazole-5-carboxylic Acid]
EC50: 10 to 25 µM

Cc1nn(-c2nc(-c3ccc(F)cc3)c(SC(C)C)s2)c(C(=O)O)c1-c1cccc(F)c1 [Compound 186, 4-(3-fluorophenyl)-1-(4-(4-fluorophenyl)-5-(isopropylthio)thiazol-2-yl)-3-methyl-1H-pyrazole-5-carboxylic Acid]
EC50: 1 to 5 µM

COc1ccc(-c2nc(-n3nc(C)c(-c4cccc(F)c4)c3C(=O)O)sc2SC(C)C)cc1 [Compound 187, 4-(3-fluorophenyl)-1-(5-(isopropylthio)-4-(4-methoxyphenyl)thiazol-2-yl)-3-methyl-1H-pyrazole-5-carboxylic Acid]
EC50: 10 to 25 µM

Cc1nn(-c2nc(-c3ccc(S(C)(=O)=O)cc3)c(SC(C)C)s2)c(C(=O)O)c1-c1cccc(F)c1 [Compound 188, 4-(3-fluorophenyl)-1-(5-(isopropylthio)-4-(4-(methylsulfonyl)phenyl)thiazol-2-yl)-3-methyl-1H-pyrazole-5-carboxylic Acid]
EC50: > 40 µM

COc1cc(-c2nc(-n3nc(C)c(-c4cccc(F)c4)c3C(=O)O)sc2SC(C)C)ccc1F [Compound 189, 1-(4-(4-fluoro-3-methoxyphenyl)-5-(isopropylthio)thiazol-2-yl)-4-(3-fluorophenyl)-3-methyl-1H-pyrazole-5-carboxylic Acid]
EC50: 10 to 25 µM

Cc1cc(-c2c(C)nn(-c3nc(-c4ccc(Cl)c(C)c4)c(SC(C)C)s3)c2C(=O)O)cc(C)n1 [Compound 190, 1-(4-(4-chloro-3-methylphenyl)-5-(isopropylthio)thiazol-2-yl)-4-(2,6-dimethylpyridin-4-yl)-3-methyl-1H-pyrazole-5-carboxylic Acid]
EC50: 1 to 5 µM

Cc1cc(-c2nc(-n3nc(C)c(-c4cccc(F)c4)c3C(=O)O)sc2SC(C)C)ccc1Cl [Compound 191, 1-(4-(4-chloro-3-methylphenyl)-5-(isopropylthio)thiazol-2-yl)-4-(3-fluorophenyl)-3-methyl-1H-pyrazole-5-carboxylic Acid]
EC50: 1 to 5 µM

Cc1cc(-c2c(C)nn(-c3nc(-c4cc(F)c(Cl)c(F)c4)c(SC(C)C)s3)c2C(=O)O)cc(C)n1 [Compound 192, 1-(4-(4-chloro-3,5-difluorophenyl)-5-(isopropylthio)thiazol-2-yl)-4-(2,6-dimethylpyridin-4-yl)-3-methyl-1H-pyrazole-5-carboxylic Acid]
EC50: 1 to 5 µM
